According to paper PMC9103660, “Two Novel Antihypertensive Peptides Identified in Millet Bran Glutelin-2 Hydrolysates: Purification, In Silico Characterization, Molecular Docking with ACE and Stability in Various Food Processing Conditions” (Foods, 2022):
pIC50: −log10 of the molar value. Entries after “also recorded” stand apart in the source; their conditions may differ. Peptide text beside a SMILES is read from it.

Tests used:
[1] = proline-rich literature peptides; cited from earlier work
Text: ACE-inhibitory peptides should have sufficient resistance to digestion by proteases existing in the gastrointestinal tract to exert antihypertension activity in the body.

[2] = tested on: ACE; experiment: ACE inhibition after simulated gastrointestinal digestion; type: in vitro ADME; conditions: simulated gastric fluid (pepsin, pH 2.0) 90 min then simulated intestinal fluid (trypsin, bile salt, pH 6.8) 180 min, 37 °C, peptide 1 mg/mL; read-out ACE IC50 before/after
Experimental: As per the same procedure described by Jimsheena and Gowda, the inhibition of ACE was evaluated by comparing the quantity of produced hippuric acid before and after the addition of the peptides. The IC50 value was calculated from the regression equation of ACE inhibition percentage for different concentrations of the sample and defined as the concentration of sample inhibiting ACE activity by 50%.
Mixtures of trypsin (0.45 g), pig bile salt (3 g) and NaHCO3 (6.25 g) dissolved in 100 mL of dH2O (pH 6.8) were used to simulate the intestinal fluid, whereas pepsin (40 mg) and NaCl (0.877 g) dissolved in 100 mL of dH2O (pH 2.0) were used to simulate the gastric fluid (Sun et al., 2021). Peptide solutions (dissolved in ultrapure water, 1 mg/mL) were incubated at 37 °C in a stirring bath (140 r/min) for 15 min, and then the simulated gastric fluid was added (gastric fluid: peptide solution = 1: 10 v/v), and the mixture was further incubated at 37 °C (140 r/min) for 90 min. Then, the reaction solution was adjusted to pH 6.8 with Na2HPO4. The simulated intestinal fluid (the fluid: peptide solution = 1: 10, v/v) was added, and the mixture was stirred (140 r/min) at 37 °C for 180 min. All reaction solutions were heated at 100 °C for 8 min to inactivate the enzymes. The ACE inhibition activities of the peptides before and after digestion were separately determined to evaluate their stability.

[3] = tested on: ACE; set-up: method as in 2 sources, ref 34, 35 = [34]; PMID 32220144; doi:10.1111/1750-3841.15115; 34. Zheng Y.J. Wang X. Zhuang Y.L. Li Y. Shi P.Q. Tian H.L. Li X.T. Chen X. Isolation of novel ACE-inhibitory peptide from naked oat globulin hydrolysates in silico approach: Molecular docking, in viv || [35]; PMID 29606478; doi:10.1016/j.foodchem.2018.02.107; 35. Tu M. Wang C. Chen C. Zhang R. Liu H. Lu W. Jiang L. Du M. Identification of a novel ACE-inhibitory peptide from casein and evaluation of the inhibitory mechanisms Food Chem. 2018 256 98 104 10.10 ||| ref 20 = [20]; doi:10.1016/j.jff.2016.11.021; 20. Zheng Y.J. Li Y. Zhang Y.L. Ruan X.H. Zhang R.G. Purification, characterization, synthesis, in vivo ACE inhibition and in vitro antihypertensive activity of bioactive peptides derived from palm ke; conditions: cited from earlier work; for pIC50: literature peptides, read-out: IC50 (ACE inhibition)

Row | Molecule | stability during gastrointestinal digestion [1] | stability during simulated gastrointestinal digestion [2] | inhibition mode towards ACE [3] | pIC50 [3]
1 | ELHPQ [proline-rich peptide identified in canary seeds] | excellent stability |  |  | 
2 | CC(C)C[C@H](NC(=O)[C@H](CC(C)C)NC(=O)[C@@H]1CCCN1)C(=O)N[C@@H](CCCCN)C(=O)O [PLLK, Pro-Leu-Leu-Lys] (H-PLLK-OH) |  | resistant; also recorded: relatively stable; also recorded: relatively high stability |  | 
3 | NMAINPSKENLCSTFCK |  |  | a competitive inhibitor of ACE | 3.89
4 | KPVPR [proline-rich peptide identified in canary seeds] | excellent stability |  |  | 
5 | CSCC[C@H](NC(=O)[C@@H]1CCCN1C(=O)[C@@H]1CCCN1)C(=O)N[C@@H](Cc1c[nH]c2ccccc12)C(=O)N1CCC[C@H]1C(=O)N[C@@H](Cc1ccccc1)C(=O)N[C@H](C(=O)O)C(C)C [PPMWPFV, Pro-Pro-Met-Trp-Pro-Phe-Val] (H-PPMWPFV-OH) |  | resistant; also recorded: relatively stable; also recorded: relatively high stability |  | 
6 | LHPQ [proline-rich peptide identified in canary seeds] | excellent stability |  |  | 
7 | SSYYPFK | excellent stability |  | a competitive inhibitor | 4.04
